What was measured:
[1] = tested on: isolated hepatocytes and microsomal fractions from rat liver; conditions: compared with an equivalent amount of directly-added free alpha-tocopherol; cited from earlier work
[2] = Viscosity as a function of shear rate, plate viscometer; format: physicochemical
Procedure: Given the results obtained, the characterization was further extended to determine the viscosity as a function of the shear rate, always using a Plate Viscometer, in particular the following solutions were measured. • Sample 1: Hyaluronic acid • Sample 2: Hyaluronic acid+Arabinogalactan • Sample 3: Eye drops A • Sample 4: Arabinogalactan
The description of the graph can be further exemplified by the following table which reports the viscosity values (mPa·s$) at 10[1/s] at a fixed point corresponding to A.

[3] = Rheology, plate viscometer in oscillation mode (G″, G′); format: physicochemical; conditions: HA 0.15% w/w, AG 0.4% w/w
Procedure: In addition to the evaluation of the effect of arabinogalactan, hyaluronic acid and the association thereof on xanthine oxidase activity and in order to characterize the possible interaction thereof, to justify the inhibitory effect thereof, rheology measurements were carried out with the hypothesis that the two macrostructures, arabinogalactan on the one hand and hyaluronic acid on the other, could modify the rheological trend of the formulation of the present invention.
With reference to FIG. 3, the characterization of the following solutions was carried out using an AM Instruments Plate Viscometer, in Oscillation Mode. The following solutions were measured: • Sample 1: Hyaluronic acid solution at 0.15% w/w • Sample 2: Arabinogalactan solution 0.4% +Hyaluronic acid 0.15% w/v • Sample 3: Arabinogalactan solution 0.4% w/w.
1: Hyaluronic acid 0.15% w/w • Solution no. 2: Arabinogalactan 0.4%+hyaluronic acid 0.15% w/w • Solution no. 3: Arabinogalactan 0.4% w/w • Interpretation of the Results: […]

xanthine oxidase [4] = target: T1, xanthine oxidase (Homo sapiens, UniProt P47989); experiment: Superoxide anion production by xanthine oxidase, detected by ferrocytochrome C reduction; format: biochemical; conditions: xanthine oxidase reaction
T1 sequence (P47989 whole entry, species assumed): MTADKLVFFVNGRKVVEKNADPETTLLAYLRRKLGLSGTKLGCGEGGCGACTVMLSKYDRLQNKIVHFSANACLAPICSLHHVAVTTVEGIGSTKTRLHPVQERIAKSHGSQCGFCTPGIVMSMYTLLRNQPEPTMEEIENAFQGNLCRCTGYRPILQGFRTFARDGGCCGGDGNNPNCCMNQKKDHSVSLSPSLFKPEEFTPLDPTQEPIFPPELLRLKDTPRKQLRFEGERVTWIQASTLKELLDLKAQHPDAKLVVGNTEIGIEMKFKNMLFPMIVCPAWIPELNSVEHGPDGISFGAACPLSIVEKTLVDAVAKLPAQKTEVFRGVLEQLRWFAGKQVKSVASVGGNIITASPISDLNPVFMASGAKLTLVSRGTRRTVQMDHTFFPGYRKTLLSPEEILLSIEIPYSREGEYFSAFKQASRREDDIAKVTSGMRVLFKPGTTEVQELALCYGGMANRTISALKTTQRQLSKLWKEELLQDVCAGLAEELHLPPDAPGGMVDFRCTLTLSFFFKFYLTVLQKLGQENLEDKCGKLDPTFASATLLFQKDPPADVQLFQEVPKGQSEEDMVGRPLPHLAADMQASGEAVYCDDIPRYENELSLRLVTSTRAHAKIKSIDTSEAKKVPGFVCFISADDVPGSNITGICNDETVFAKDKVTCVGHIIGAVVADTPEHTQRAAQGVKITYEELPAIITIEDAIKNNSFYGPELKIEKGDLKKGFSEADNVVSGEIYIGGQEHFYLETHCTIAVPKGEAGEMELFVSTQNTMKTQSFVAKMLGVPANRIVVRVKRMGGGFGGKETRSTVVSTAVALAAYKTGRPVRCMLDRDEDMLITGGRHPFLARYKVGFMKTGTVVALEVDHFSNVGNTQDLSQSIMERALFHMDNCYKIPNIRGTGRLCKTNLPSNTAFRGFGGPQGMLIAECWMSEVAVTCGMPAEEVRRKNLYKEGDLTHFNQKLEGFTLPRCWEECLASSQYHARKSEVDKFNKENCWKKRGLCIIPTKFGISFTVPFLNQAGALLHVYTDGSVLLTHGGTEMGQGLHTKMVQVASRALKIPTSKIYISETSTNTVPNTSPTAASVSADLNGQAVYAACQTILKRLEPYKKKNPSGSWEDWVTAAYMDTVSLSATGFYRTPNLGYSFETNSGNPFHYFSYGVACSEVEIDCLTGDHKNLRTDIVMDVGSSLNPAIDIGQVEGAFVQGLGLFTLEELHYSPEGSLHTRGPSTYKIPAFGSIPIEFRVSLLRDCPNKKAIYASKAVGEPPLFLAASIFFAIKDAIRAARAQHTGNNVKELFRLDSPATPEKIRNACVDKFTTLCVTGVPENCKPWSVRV
Excerpt: Any inhibition is particularly important because the superoxide anion production is at the origin, at least in part, of the inflammatory phenomena of the ocular surface. The superoxide anion produced by xanthine oxidase in the oxidation reaction of xanthine was detected by the reduction of […] to […] by the same superoxide anion (O2^−·) (Fridovich). The reaction is reported here for clarity:
Fe^3+Cit.C+Superoxide Anion-----→Fe^2+Cit.C
The effect of arabinogalactan, hyaluronic acid, and the association thereof on superoxide anion production over time (0, 1, 5, 10, 15, 30 min) was investigated. The production of superoxide anion was determined by the reduction of ferrocytochrome C (3+) to ferrocytochrome C (2+), monitoring absorption at 551 nm using a DR6000 UV spectrophotometer (Hach, Lange). The tests for the determination of superoxide anion production were carried out still using the xanthine oxidase reaction used previously.
Produced by the superoxide anion, the ferrocytochrome C was calculated considering a molar absorption equal to 2.1×10^4 M^−1·cm^−1 (Ref. 16-17). The superoxide inhibition evaluation reported above was performed for arabinogalactan, hyaluronic acid, and the association thereof. Furthermore, the eye drops formulation of the present invention was also evaluated, also comprising panthenol, vitamin E-TGPS and trehalose.

xanthine oxidase [5] = target: T1, xanthine oxidase; experiment: Xanthine oxidase (XOD) reaction inhibition: formation of uric acid; format: biochemical
Procedure: The effect of arabinogalactan, hyaluronic acid and the association thereof was investigated by monitoring the formation of uric acid over time (0, 1, 5, 10, 15, 30 min). Uric acid concentration was determined at 291 nm using a DR6000 UV spectrophotometer (Hach, Lange). The absorbance value is related to the concentration by means of the Lambert-Beer law:
where A is the absorbance of uric acid at 291 nm, ε is the molar absorption coefficient, b is the optical path (thickness of the cuvette in which the solution is contained) and C is the uric acid concentration.
The blank/control consists of: 50 μM xanthine, 10 mg L^−1 of xanthine oxidase (XO) (0.00016 μUI of enzyme) in borate buffer solution (see table 3) 7.2≤pH≤7.8). The effect of the components of the eye drops was investigated by adding the individual components to the blank solution: respectively • (i) 0.4% (w/w) of arabinogalactan (AG) • (ii) 0.15% (w/w) of hyaluronic acid (HA) • (iii) association of 0.4% (w/w) of AG+0.15% (w/w) of HA (mix AG+HA). • (iii) Eye drops corresponding to the formulation of Tab.3.
All the tests were conducted at least in triplicate.
The uric acid formation reductions were calculated as: […]
where C30-(i) is the final concentration (30 min) of uric acid in the i-th test and C30-control is the uric acid concentration at 30 min in the blank (control).
Furthermore, the inhibition evaluation reported above was also carried out in borate buffer for arabinogalactan, for hyaluronic acid and for the association thereof, and finally for the eye drops formulation of the present invention, also comprising panthenol, vitamin E-TGPS and trehalose.

Compound | Antioxidant protection [1] | Viscosity trend as a function of shear rate ([2]; FIG. 4) | Viscosity ([2]; at 10 [1/s], fixed point) | Trend of G″ (Loss Modulus Viscosity) [3] | Fe+2 Cit.C μM produced per minute (xanthine oxidase [4]; per minute) | Fe+2 Cit.C μM produced in 30 minutes (xanthine oxidase [4]; 551 nm, 30 min) | Inhibition % of Fe+2 Cit.C production (superoxide anion) (xanthine oxidase [4]; 551 nm, 30 min vs control) | Uric acid μM produced in 30 minutes (xanthine oxidase [5]; 50 μM xanthine, 10 mg L−1 xanthine oxidase, borate buffer, AG 0.4% w/w, HA 0.15% w/w, 30 min) | Inhibition % of uric acid production (xanthine oxidase [5]; 50 μM xanthine, 10 mg L−1 xanthine oxidase, borate buffer, AG 0.4% w/w, HA 0.15% w/w, 30 min vs blank) | Uric acid μM produced per minute (xanthine oxidase [5]; per minute, same reaction, linear kinetics assumed)
Cc1c(C)c2c(c(C)c1OC(=O)CCC(=O)O)CC[C@@](C)(CCC[C@H](C)CCC[C@H](C)CCCC(C)C)O2 [TS, alpha-tocopherol succinate, reference compound] | more effective antioxidant protection than an equivalent amount of directly-added free alpha-tocopherol | – | – | – | – | – | – | – | – | –
Hyaluronic acid | – | linear trend (Newtonian) higher viscosity | 1.50 mPa·s | always with a value higher than the other measured solutions | 0.42 µM | 12.6 µM | 17.2% | 15.3 µM | 0% | 0.51 µM
alpha-tocopherol polyethylene glycol 1000 succinate [TPGS] | more effective antioxidant protection than an equivalent amount of directly-added free alpha-tocopherol | – | – | – | – | – | – | – | – | –
